43 molecules from patent US8222280B2, “Ether compounds with nitrogen-containing 5-member heterocycle and uses thereof” (Sinochem Corporation, priority 2008, dated 2012) can be followed below.

The structures appear in SMILES notation.

The test system of assay [1] is second instar larvae of diamond backmoth (Plutella xylostella). Description: Insecticidal activity against diamond backmoth, leaf disc spraying by airbrush. It counts as in vivo. The note with it: mortality after 72 hrs, sprayed cabbage leaf disc. On the procedure:
To determine the insecticidal and acaricidal activity of selected compounds by the following procedures:
Compounds were dissolved in mixed solvent (acetone:methanol=1:1), and diluted to required concentration with water containing 0.1% of tween 80.
The second instar larvae of diamond backmoth (Plutella xylostella) were used in biological test. The method of spraying by airbrush was employed.
Determination of insecticidal activity against diamond backmoth: The cabbage leaves were made into plates of 1 cm diameter by punch. A test solution (0.5 ml) was sprayed by airbrush at the pressure of 0.7 kg/cm^2 to both sides of every plate. 10 Second instar larvae were put into the petri-dishes after the leaf disc air-dried and 3 replicates were set for each treatment. Then the insects were maintained in observation room ([…], 60-70% R.H.). Scores were conducted and mortalities were calculated after 72 hrs.

In the next assay the test system is wheat powdery mildew. Nature of the assay: Fungicidal activity in vivo on potted plants. Particulars: 400 ppm; sprayed on potted plant, inoculation after 24 hours, visual assessment after about 1 week. On the procedure:
Determination of fungicidal activities against plant diseases of selected compounds were carried out by the following procedure:
Determination of Fungicidal Activity In Vivo:
Plants were prepared in pot. Compounds were dissolved in acetone and diluted to required concentration by water containing 0.1% (wt) Tween80. Test solution was sprayed onto potted plant. Pathogen inoculation was carried out after 24 hours, then plants were hold in growth chambers maintaining constant temperature and moisture for infection. When untreated plant was under desirable disease severity (after 1 week approximately), assessment was carried out by visual observation.

`Cn1nc(OCCCCOc2c(Cl)cc(OCC=C(Cl)Cl)cc2Cl)cc1-c1ccc(Cl)cc1` [Compound 522]: the “control of the second instar larvae of diamond backmoth” value (“control … of diamond backmoth” for short) in assay [1] (dose 100 mg/L) came out at 100%.

As for `Cn1nc(OCCCOc2c(Cl)cc(OCC=C(Cl)Cl)cc2Cl)cc1-c1ccc(C(C)(C)C)cc1` [Compound 306], in assay [1] (dose 100 mg/L), the “control … of diamond backmoth” value came out at 100%.

For the molecule `Cc1ccc(-c2c(C)c(OCCCOc3c(Cl)cc(OCC=C(Cl)Cl)cc3Cl)nn2C)cc1C` [Compound 377], the “control … of diamond backmoth” value in assay [1] (dose 25 mg/L) and in assay [1] (dose 100 mg/L) was 100% in each case.

Take `Cc1ccc(-c2cc(OCCCOc3c(Cl)cc(OCC=C(Cl)Cl)cc3Cl)nn2C)cc1` [Compound 284]: in assay [1] (dose 100 mg/L), the “control … of diamond backmoth” value was 100%.

In the case of `Cc1ccc(-c2cc(OCCCOc3c(Cl)cc(OCC=C(Cl)Cl)cc3Cl)n(C)n2)cc1` [Compound 17], the “control … of diamond backmoth” value in assay [1] (dose 100 mg/L) is reported as 100%.

Regarding `CCCc1ccc(-c2cc(OCCCOc3c(Cl)cc(OCC=C(Cl)Cl)cc3Cl)n(C)n2)cc1` [Compound 38], the “control … of diamond backmoth” value in assay [1] (dose 100 mg/L) is recorded as 100%.

For the molecule `Cc1c(-c2ccccc2)nn(C)c1OCCCCOc1c(Cl)cc(OCC=C(Cl)Cl)cc1Cl` [Compound 257], in assay [1] (dose 100 mg/L), the “control … of diamond backmoth” value is 100%.

For the molecule `COc1ccccc1-c1cc(OCCCOc2c(Cl)cc(OCC=C(Cl)Cl)cc2Cl)n(C)n1` [Compound 24], the “control … of diamond backmoth” value in assay [1] (dose 100 mg/L) turned out to be 100%.

Consider `CSc1ccc(-c2cc(OCCCOc3c(Cl)cc(OCC=C(Cl)Cl)cc3Cl)n(C)n2)cc1` [Compound 8], for which the “control … of diamond backmoth” value in assay [1] (dose 100 mg/L) stood at 100%.

`COc1ccc(-c2c(C)c(OCCCOc3c(Cl)cc(OCC=C(Cl)Cl)cc3Cl)nn2C)cc1` [Compound 363]: in assay [1] (dose 100 mg/L), the “control … of diamond backmoth” value was determined as 100%.

On to `CCc1ccc(-c2cc(OCCCOc3c(Cl)cc(OCC=C(Cl)Cl)cc3Cl)n(C)n2)cc1` [Compound 18], for which, in assay [1] (dose 100 mg/L), the “control … of diamond backmoth” value was determined as 100%.

As to `Cc1c(OCCCOc2c(Cl)cc(OCC=C(Cl)Cl)cc2Cl)nn(C)c1-c1ccc(C(C)(C)C)cc1` [Compound 389], in assay [1] (dose 100 mg/L), the “control … of diamond backmoth” value turned out to be 100%.

On to `Cn1nc(OCCCOc2c(Cl)cc(OCC=C(Cl)Cl)cc2Cl)cc1-c1ccc(Cl)cc1Cl` [Compound 278], for which the “control … of diamond backmoth” value in assay [1] (dose 100 mg/L) is given as 100%.

For `Cc1c(-c2ccc(Cl)cc2Cl)nn(C)c1OCCCOc1c(Cl)cc(OCC=C(Cl)Cl)cc1Cl` [Compound 86], in assay [1] (dose 100 mg/L), the “control … of diamond backmoth” value is 100%.

Regarding `Cn1nc(OCCCOc2c(Cl)cc(OCC=C(Cl)Cl)cc2Cl)cc1-c1ccccc1` [Compound 268], the “control … of diamond backmoth” value in assay [1] (dose 25 mg/L) and in assay [1] (dose 100 mg/L) was 100% throughout.

On to `Cc1ccc(-c2c(C)c(OCCCCOc3c(Cl)cc(OCC=C(Cl)Cl)cc3Cl)nn2C)cc1` [Compound 538], for which the “control … of diamond backmoth” value in assay [1] (dose 100 mg/L) was determined as 100%.

As for `Cn1nc(-c2ccc(Cl)cc2)cc1OCCCCOc1c(Cl)cc(OCC=C(Cl)Cl)cc1Cl` [Compound 247], the “control … of diamond backmoth” value in assay [1] (dose 25 mg/L) and in assay [1] (dose 100 mg/L) was 100% in each case.

Consider `Cn1nc(OCCCOc2c(Cl)cc(OCC=C(Cl)Cl)cc2Cl)cc1-c1ccc(Br)cc1` [Compound 283], for which, in assay [1] (dose 100 mg/L), the “control … of diamond backmoth” value was 100%.

Take `Cn1nc(-c2ccc(Cl)cc2Cl)cc1OCCCOc1c(Cl)cc(OCC=C(Cl)Cl)cc1Cl` [Compound 11]: in assay [1] (dose 100 mg/L), the “control … of diamond backmoth” value amounted to 100%.

As to `COc1ccc(-c2cc(OCCCOc3c(Cl)cc(OCC=C(Cl)Cl)cc3Cl)nn2C)cc1` [Compound 280], in assay [1] (dose 100 mg/L), the “control … of diamond backmoth” value came to 100%.

Take `COc1ccc(-c2cc(OCCCOc3c(Cl)cc(OCC=C(Cl)Cl)cc3Cl)n(C)n2)cc1` [Compound 13]: in assay [1] (dose 100 mg/L), the “control … of diamond backmoth” value worked out at 100%.

`Cc1c(-c2ccc(Cl)cc2)nn(C)c1OCCCOc1c(Cl)cc(OCC=C(Cl)Cl)cc1Cl` [Compound 77]: the “control … of diamond backmoth” value in assay [1] (dose 100 mg/L) amounted to 100%.

As to `Cc1ccc(-c2c(C)c(OCCCOc3c(Cl)cc(OCC=C(Cl)Cl)cc3Cl)nn2C)cc1` [Compound 367], the “control … of diamond backmoth” value in assay [1] (dose 25 mg/L) and in assay [1] (dose 100 mg/L) was 100% throughout.

As to `Cc1c(OCCCOc2c(Cl)cc(OCC=C(Cl)Cl)cc2Cl)nn(C)c1-c1ccc(C(C)C)cc1` [Compound 387], the “control … of diamond backmoth” value in assay [1] (dose 25 mg/L) and in assay [1] (dose 100 mg/L) was 100% throughout.

Consider `CCc1ccc(-c2c(C)c(OCCCOc3c(Cl)cc(OCC=C(Cl)Cl)cc3Cl)nn2C)cc1` [Compound 368], for which the “control … of diamond backmoth” value in assay [1] (dose 100 mg/L) is given as 100%.

Regarding `Cc1ccc(-c2cc(OCCCOc3c(Cl)cc(OCC=C(Cl)Cl)cc3Cl)nn2C)c(C)c1` [Compound 293], the “control … of diamond backmoth” value in assay [1] (dose 100 mg/L) amounted to 100%.

Consider `Cn1nc(-c2ccc(Br)cc2)cc1OCCCOc1c(Cl)cc(OCC=C(Cl)Cl)cc1Cl` [Compound 16], for which the “control … of diamond backmoth” value in assay [1] (dose 100 mg/L) worked out at 100%.

Turning to `ClC(Cl)=CCOc1cc(Cl)c(OCCCOc2cnn(-c3ccc(Cl)cc3)c2)c(Cl)c1` [Compound 546], the “control … of diamond backmoth” value in assay [1] (dose 100 mg/L) stood at 100%.

For the molecule `CCOc1ccc(-c2c(C)c(OCCCOc3c(Cl)cc(OCC=C(Cl)Cl)cc3Cl)nn2C)cc1` [Compound 356], the “control … of diamond backmoth” value in assay [1] (dose 100 mg/L) amounted to 100%.

Consider `Cc1c(-c2ccccc2)nn(C)c1OCCCOc1c(Cl)cc(OCC=C(Cl)Cl)cc1Cl` [Compound 76], for which the “control … of diamond backmoth” value in assay [1] (dose 100 mg/L) is on record as 100%.

Regarding `Cn1nc(-c2ccc(Cl)cc2)cc1OCCCCOc1ccc(OCC=C(Cl)Cl)cc1Cl` [Compound 248], the “control … of diamond backmoth” value in assay [1] (dose 25 mg/L) and in assay [1] (dose 100 mg/L) was 100% in each case.

Take `Cc1c(OCCCOc2c(Cl)cc(OCC=C(Cl)Cl)cc2Cl)nn(C)c1-c1ccc(Cl)c(Cl)c1` [Compound 361]: in assay [1] (dose 100 mg/L), the “control … of diamond backmoth” value came to 100%.

With `Cc1ccc(-c2cc(OCCCOc3c(Cl)cc(OCC=C(Cl)Cl)cc3Cl)n(C)n2)c(C)c1` [Compound 26], the “control … of diamond backmoth” value in assay [1] (dose 100 mg/L) came to 100%.

On to `Cc1ccc(-c2nn(C)c(OCCCOc3c(Cl)cc(OCC=C(Cl)Cl)cc3Cl)c2C)cc1` [Compound 92], for which the “control … of diamond backmoth” value in assay [1] (dose 100 mg/L) was determined as 100%.

Turning to `Cc1c(OCCCOc2c(Cl)cc(OCC=C(Cl)Cl)cc2Cl)nn(C)c1-c1ccc(Cl)cc1Cl` [Compound 360], the “control … of diamond backmoth” value in assay [1] (dose 100 mg/L) was 100%.

With `Cc1c(OCCCCOc2c(Cl)cc(OCC=C(Cl)Cl)cc2Cl)nn(C)c1-c1ccccc1` [Compound 532], the “control … of diamond backmoth” value in assay [1] (dose 100 mg/L) is given as 100%.

For `Cn1nc(-c2ccccc2)cc1OCCCOc1c(Cl)cc(OCC=C(Cl)Cl)cc1Cl` [Compound 1], in assay [1] (dose 100 mg/L), the “control … of diamond backmoth” value was found to be 100%.

For the molecule `Cn1nc(-c2ccc(Cl)cc2)cc1OCCOc1c(Cl)cc(OCC=C(Cl)Cl)cc1Cl` [Compound 225], the “control … of diamond backmoth” value in assay [1] (dose 25 mg/L) and in assay [1] (dose 100 mg/L) was 100% in each case.

Take `FC(F)(F)c1ccc(OCCCOc2c(Cl)cc(OCC=C(Cl)Cl)cc2Cl)nc1` [pyridalyl, Pyridalyl, reference compound]: the entries for the “control … of diamond backmoth” value in assay [1] (dose 6.25 mg/L), in assay [1] (dose 25 mg/L) and in assay [1] (dose 100 mg/L) were 65%, 100% and 100%, respectively.

Turning to `Cn1nc(OCCOc2c(Cl)cc(OCC=C(Cl)Cl)cc2Cl)cc1-c1ccc(Cl)cc1` [Compound 500], the “control … of diamond backmoth” value in assay [1] (dose 100 mg/L) came out at 100%.

For the molecule `Cn1nc(OCCCOc2c(Cl)cc(OCC=C(Cl)Cl)cc2Cl)cc1-c1ccc(Cl)cc1` [Compound 269], the “control … of diamond backmoth” value in assay [1] (dose 25 mg/L) and in assay [1] (dose 100 mg/L) was 100% each time.

In the case of `Cc1c(OCCCOc2c(Cl)cc(OCC=C(Cl)Cl)cc2Cl)nn(C)c1-c1ccc(F)cc1` [Compound 352], the “control … of diamond backmoth” value in assay [1] (dose 25 mg/L) and in assay [1] (dose 100 mg/L) was 100% each time.

Regarding `Cn1nc(-c2ccc(Cl)cc2)cc1OCCCOc1c(Cl)cc(OCC=C(Cl)Cl)cc1Cl` [Compound 2], the “control … of diamond backmoth” value in assay [1] (dose 25 mg/L) and in assay [1] (dose 100 mg/L) was 100% in each case. The “control of wheat powdery mildew” value in the assay with wheat powdery mildew was “more than 70%”.
